# From the supplement of paper PMC10307832
# Tests used:
# Experiment in all cases: relative viability (nuclei count vs DMSO), 5 days (fraction); higher = more cells survive
# NCI-H2170 = system: NCI-H2170
# In short: (§1)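 Medians of duplicate plates are given as relative viability. That measure is the nuclei count in treated wells divided by the count in vehicle wells. Counts were taken on 4× images of lung cancer cell lines in 1536-well plates, 5 days after pin-tool dosing the day after seeding with one drug alone or a fixed anchor-drug dose plus five library-drug doses (not always all listed) in √10 steps.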
# NCI-H441 = system: NCI-H441
# In short: as §1
# LC-2-ad = system: LC-2-ad
# In short: as §1
# SW 900 = system: SW 900
# In short: as §1
# NCI-H650 = system: NCI-H650
# In short: as §1
# NCI-H1651 = system: NCI-H1651
# In short: as §1
# EPLC-272H = system: EPLC-272H
# In short: as §1
# NCI-H727 = system: NCI-H727
# In short: as §1
# NCI-H23 = system: NCI-H23
# In short: as §1
# LOU-NH91 = system: LOU-NH91
# In short: as §1
# H3255 = system: H3255
# In short: as §1
# PC-3 [JPC-3] = system: PC-3 [JPC-3]
# In short: as §1
# HARA = system: HARA
# In short: as §1
# NCI-H2085 = system: NCI-H2085
# In short: as §1
# NCI-H2087 = system: NCI-H2087
# In short: as §1
# NCI-H1975 = system: NCI-H1975
# In short: as §1
# NCI-H838 = system: NCI-H838
# In short: as §1
smiles,measurement,setting,value
CCNC(=O)c1noc(-c2cc(C(C)C)c(O)cc2O)c1-c1ccc(CN2CCOCC2)cc1 [Luminespib] + NC(=O)Nc1cc(-c2cccc(F)c2)sc1C(=O)N[C@H]1CCCNC1 [AZD7762] (partner 0.2 µM),relative viability,NCI-H2170; first compound 0.002 µM,0.868
same,relative viability,NCI-H2170; first compound 0.006325 µM,0.851
same,relative viability,NCI-H2170; first compound 0.06325 µM,0.118
same,relative viability,NCI-H2170; first compound 0.2 µM,0.104
same,relative viability,NCI-H441; first compound 0.002 µM,1.08
same,relative viability,NCI-H441; first compound 0.006325 µM,1.05
same,relative viability,NCI-H441; first compound 0.02 µM,1.18
same,relative viability,NCI-H441; first compound 0.06325 µM,0.308
same,relative viability,NCI-H441; first compound 0.2 µM,0.126
same,relative viability,LC-2-ad; first compound 0.002 µM,0.802
same,relative viability,LC-2-ad; first compound 0.006325 µM,0.854
same,relative viability,LC-2-ad; first compound 0.02 µM,0.833
same,relative viability,LC-2-ad; first compound 0.06325 µM,0.146
same,relative viability,LC-2-ad; first compound 0.2 µM,0.16
same,relative viability,SW 900; first compound 0.002 µM,0.667
same,relative viability,SW 900; first compound 0.006325 µM,0.752
same,relative viability,SW 900; first compound 0.02 µM,0.396
same,relative viability,SW 900; first compound 0.06325 µM,0.129
same,relative viability,SW 900; first compound 0.2 µM,0.13
same,relative viability,NCI-H650; first compound 0.002 µM,0.93
same,relative viability,NCI-H650; first compound 0.006325 µM,0.958
same,relative viability,NCI-H650; first compound 0.02 µM,0.587
same,relative viability,NCI-H650; first compound 0.06325 µM,0.139
same,relative viability,NCI-H650; first compound 0.2 µM,0.0919
same,relative viability,NCI-H1651; first compound 0.002 µM,0.445
same,relative viability,NCI-H1651; first compound 0.006325 µM,0.441
same,relative viability,NCI-H1651; first compound 0.02 µM,0.277
same,relative viability,NCI-H1651; first compound 0.06325 µM,0.446
same,relative viability,NCI-H1651; first compound 0.2 µM,0.181
same,relative viability,EPLC-272H; first compound 0.002 µM,0.224
same,relative viability,EPLC-272H; first compound 0.006325 µM,0.389
same,relative viability,EPLC-272H; first compound 0.02 µM,0.193
same,relative viability,EPLC-272H; first compound 0.06325 µM,0.0934
same,relative viability,EPLC-272H; first compound 0.2 µM,0.127
same,relative viability,NCI-H727; first compound 0.002 µM,0.53
same,relative viability,NCI-H727; first compound 0.006325 µM,0.493
same,relative viability,NCI-H727; first compound 0.02 µM,0.57
same,relative viability,NCI-H727; first compound 0.06325 µM,0.36
same,relative viability,NCI-H727; first compound 0.2 µM,0.323
same,relative viability,NCI-H23; first compound 0.002 µM,0.258
same,relative viability,NCI-H23; first compound 0.006325 µM,0.247
same,relative viability,NCI-H23; first compound 0.02 µM,0.259
same,relative viability,NCI-H23; first compound 0.06325 µM,0.133
same,relative viability,NCI-H23; first compound 0.2 µM,0.11
same,relative viability,LOU-NH91; first compound 0.002 µM,0.797
same,relative viability,LOU-NH91; first compound 0.006325 µM,0.799
same,relative viability,LOU-NH91; first compound 0.02 µM,0.66
same,relative viability,LOU-NH91; first compound 0.06325 µM,0.322
same,relative viability,LOU-NH91; first compound 0.2 µM,0.318
same,relative viability,H3255; first compound 0.002 µM,0.857
same,relative viability,H3255; first compound 0.006325 µM,0.794
same,relative viability,H3255; first compound 0.02 µM,0.808
same,relative viability,H3255; first compound 0.06325 µM,0.774
same,relative viability,H3255; first compound 0.2 µM,0.31
same,relative viability,PC-3 [JPC-3]; first compound 0.002 µM,0.747
same,relative viability,PC-3 [JPC-3]; first compound 0.006325 µM,0.86
same,relative viability,PC-3 [JPC-3]; first compound 0.02 µM,0.492
same,relative viability,PC-3 [JPC-3]; first compound 0.06325 µM,0.319
same,relative viability,PC-3 [JPC-3]; first compound 0.2 µM,0.337
same,relative viability,HARA; first compound 0.002 µM,0.304
same,relative viability,HARA; first compound 0.006325 µM,0.291
same,relative viability,HARA; first compound 0.02 µM,0.511
same,relative viability,HARA; first compound 0.06325 µM,0.18
same,relative viability,HARA; first compound 0.2 µM,0.125
same,relative viability,NCI-H2085; first compound 0.002 µM,0.923
same,relative viability,NCI-H2085; first compound 0.006325 µM,0.909
same,relative viability,NCI-H2085; first compound 0.02 µM,0.694
same,relative viability,NCI-H2085; first compound 0.06325 µM,0.389
same,relative viability,NCI-H2085; first compound 0.2 µM,0.245
same,relative viability,NCI-H2087; first compound 0.002 µM,1.34
same,relative viability,NCI-H2087; first compound 0.006325 µM,1.1
same,relative viability,NCI-H2087; first compound 0.02 µM,1.45
same,relative viability,NCI-H2087; first compound 0.06325 µM,0.19
same,relative viability,NCI-H2087; first compound 0.2 µM,0.117
same,relative viability,NCI-H1975; first compound 0.002 µM,0.686
same,relative viability,NCI-H1975; first compound 0.006325 µM,0.735
same,relative viability,NCI-H1975; first compound 0.02 µM,0.348
same,relative viability,NCI-H1975; first compound 0.06325 µM,0.167
same,relative viability,NCI-H1975; first compound 0.2 µM,0.165
same,relative viability,NCI-H838; first compound 0.002 µM,0.994
same,relative viability,NCI-H838; first compound 0.006325 µM,0.89
same,relative viability,NCI-H838; first compound 0.02 µM,0.775
same,relative viability,NCI-H838; first compound 0.06325 µM,0.625
same,relative viability,NCI-H838; first compound 0.2 µM,0.597
